Reference: ChEMBL document CHEMBL1201862, “PubChem BioAssay data set” (2004)
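In this assay, cells in 96-well plates receive the compound at five concentrations for 48 hours. Endpoints are linearly interpolated between the surrounding concentrations. GI50 marks 50% less growth.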 Active and inactive are the calls of the source. No stated cut-off is given here; in the data, active = GI50 up to about 1.1 µM and inactive = higher.

Experiments:
Assay in all cases: NCI-60 cell line screen, 48 h
BT-549 = tested on: BT-549
HCC 2998 = tested on: HCC 2998
HCT-116 = tested on: HCT-116
M14 = tested on: M14
MDA-MB-231 = tested on: MDA-MB-231
MDA-N = tested on: MDA-N
NCI-H522 = tested on: NCI-H522
OVCAR-3 = tested on: OVCAR-3
OVCAR-4 = tested on: OVCAR-4
SF-539 = tested on: SF-539
CCRF-CEM = tested on: CCRF-CEM
COLO 205 = tested on: COLO 205
DLD-1 = tested on: DLD-1
MOLT-4 = tested on: MOLT-4
NCI-H23 = tested on: NCI-H23
SK-MEL-28 = tested on: SK-MEL-28
SK-MEL-5 = tested on: SK-MEL-5
SK-OV-3 = tested on: SK-OV-3
U-251 = tested on: U-251
UACC-62 = tested on: UACC-62

| Compound | GI50 (BT-549) | GI50 (HCC 2998) | GI50 (HCT-116) | GI50 (M14) | GI50 (MDA-MB-231) | GI50 (MDA-N) | GI50 (NCI-H522) | GI50 (OVCAR-3) | GI50 (OVCAR-4) | GI50 (SF-539) | GI50 (CCRF-CEM) | GI50 (COLO 205) | GI50 (DLD-1) | GI50 (MOLT-4) | GI50 (NCI-H23) | GI50 (SK-MEL-28) | GI50 (SK-MEL-5) | GI50 (SK-OV-3) | GI50 (U-251) | GI50 (UACC-62) |
| --- | --- | --- | --- | --- | --- | --- | --- | --- | --- | --- | --- | --- | --- | --- | --- | --- | --- | --- | --- | --- |
| CCc1cc2c(oc3cc4ccccc4cc32)c(=O)[nH]1 | > 10 µM (inactive) | > 10 µM (inactive) | > 10 µM (inactive) | > 10 µM (inactive) | > 10 µM (inactive) | > 10 µM (inactive) | > 10 µM (inactive) | > 10 µM (inactive) | > 10 µM (inactive) | > 10 µM (inactive) | – | – | – | – | – | – | – | – | – | – |
| CNC(=O)OCc1nc(SC)n(C)c1CO | – | > 100 µM (inactive) | > 100 µM (inactive) | – | – | – | > 100 µM (inactive) | > 100 µM (inactive) | > 100 µM (inactive) | > 100 µM (inactive) | > 100 µM (inactive) | > 100 µM (inactive) | > 100 µM (inactive) | > 100 µM (inactive) | > 100 µM (inactive) | > 100 µM (inactive) | > 100 µM (inactive) | > 100 µM (inactive) | > 100 µM (inactive) | > 100 µM (inactive) |
| c1ccc2c(c1)c1ccccc1n2Cn1c2ccccc2c2ccccc21 | > 100 µM (inactive) | – | – | > 100 µM (inactive) | > 100 µM (inactive) | > 100 µM (inactive) | > 100 µM (inactive) | > 100 µM (inactive) | > 100 µM (inactive) | – | > 100 µM (inactive) | – | – | > 100 µM (inactive) | > 100 µM (inactive) | > 100 µM (inactive) | > 100 µM (inactive) | – | > 100 µM (inactive) | > 100 µM (inactive) |
| O=S(=O)(/N=C(\NO)Nc1ccc(Cl)cc1)c1ccc(-c2ccccn2)s1 | 19.6 µM (inactive) | – | 38.6 µM (inactive) | 56.1 µM (inactive) | 49.7 µM (inactive) | 24.2 µM (inactive) | 11.5 µM (inactive) | 4.03 µM (inactive) | 16.4 µM (inactive) | 41.4 µM (inactive) | 42.8 µM (inactive) | 45.1 µM (inactive) | – | 40.1 µM (inactive) | 37.3 µM (inactive) | 69.2 µM (inactive) | 31.4 µM (inactive) | 56.1 µM (inactive) | 44.4 µM (inactive) | 44.2 µM (inactive) |
| COc1ccc(C2c3cc4c(cc3OC(Nc3ccccc3)C2C)OCO4)cc1 (configuration not stated) | 68.1 µM (inactive) | 67.9 µM (inactive) | 12.7 µM (inactive) | 85.9 µM (inactive) | > 100 µM (inactive) | > 100 µM (inactive) | 12.1 µM (inactive) | 53.1 µM (inactive) | – | > 100 µM (inactive) | 14.1 µM (inactive) | 36.1 µM (inactive) | – | 11.2 µM (inactive) | 64 µM (inactive) | > 100 µM (inactive) | 79.4 µM (inactive) | > 100 µM (inactive) | 56.8 µM (inactive) | 52.8 µM (inactive) |
| CN(C)CCNC(=O)c1cccc2c1Nc1ccccc1S2 | – | 13.9 µM (inactive) | 12.2 µM (inactive) | – | – | – | – | 14.5 µM (inactive) | 13.4 µM (inactive) | 15.2 µM (inactive) | 12.4 µM (inactive) | 11.8 µM (inactive) | 15.6 µM (inactive) | 10.6 µM (inactive) | 14.6 µM (inactive) | 14.4 µM (inactive) | 13.2 µM (inactive) | 16.1 µM (inactive) | 13.7 µM (inactive) | 14.6 µM (inactive) |
| CCOC(=O)NC(=O)c1cn(C2CCCCC2)c(=O)n(C)c1=O | – | > 100 µM (inactive) | > 100 µM (inactive) | > 100 µM (inactive) | – | – | > 100 µM (inactive) | > 100 µM (inactive) | > 100 µM (inactive) | > 100 µM (inactive) | > 100 µM (inactive) | > 100 µM (inactive) | > 100 µM (inactive) | > 100 µM (inactive) | > 100 µM (inactive) | > 100 µM (inactive) | > 100 µM (inactive) | > 100 µM (inactive) | > 100 µM (inactive) | > 100 µM (inactive) |
| Cc1c(-c2cc3n(n2)C(c2cccs2)C(C#N)=C(c2ccccc2)N3)c(=O)n(-c2ccccc2)n1C (configuration not stated) | – | > 100 µM (inactive) | > 75.7 µM (inactive) | – | – | – | 63.2 µM (inactive) | > 100 µM (inactive) | > 87.9 µM (inactive) | > 100 µM (inactive) | > 95.1 µM (inactive) | > 89.3 µM (inactive) | > 100 µM (inactive) | > 72.6 µM (inactive) | > 89.5 µM (inactive) | > 100 µM (inactive) | 28.8 µM (inactive) | > 100 µM (inactive) | 32.7 µM (inactive) | > 100 µM (inactive) |
| CCOC(=O)/C=C(\C)c1ccc(C)cc1C | – | > 100 µM (inactive) | > 100 µM (inactive) | > 100 µM (inactive) | – | – | – | – | > 100 µM (inactive) | > 100 µM (inactive) | 49.2 µM (inactive) | > 100 µM (inactive) | 15.7 µM (inactive) | > 100 µM (inactive) | 45.4 µM (inactive) | 21.9 µM (inactive) | 34.3 µM (inactive) | – | > 100 µM (inactive) | – |
| O=C1CC2(CCC(O)(c3ccccc3)C(C(=O)c3ccccc3)C2)C(=O)c2ccccc2N1 (configuration not stated) | > 100 µM (inactive) | > 100 µM (inactive) | > 100 µM (inactive) | > 100 µM (inactive) | > 100 µM (inactive) | > 100 µM (inactive) | – | > 100 µM (inactive) | 38.2 µM (inactive) | > 100 µM (inactive) | 46.8 µM (inactive) | > 100 µM (inactive) | – | > 100 µM (inactive) | > 100 µM (inactive) | > 100 µM (inactive) | > 100 µM (inactive) | > 100 µM (inactive) | > 100 µM (inactive) | > 100 µM (inactive) |
| CNc1cc2c(c3ccccc13)C(CCl)CN2C(=O)c1cc2cc(OC)c(OC)c(OC)c2[nH]1 (configuration not stated) | 0.00881 µM (active) | < 0.01 µM (active) | 0.00106 µM (active) | 0.00235 µM (active) | 0.0074 µM (active) | 0.00243 µM (active) | < 0.01 µM (active) | 0.0226 µM (active) | < 0.01 µM (active) | 0.00196 µM (active) | 0.00053 µM (active) | 0.00227 µM (active) | – | 0.00053 µM (active) | 0.000465 µM (active) | 0.0122 µM (active) | 0.00146 µM (active) | 0.0116 µM (active) | 0.00191 µM (active) | 0.000588 µM (active) |
| OCc1cc2ccncc2c2c1[nH]c1ccccc12 | – | 2.44 µM (inactive) | 3.74 µM (inactive) | 13.2 µM (inactive) | – | – | – | – | 6.95 µM (inactive) | 3.72 µM (inactive) | 7.33 µM (inactive) | 6.82 µM (inactive) | 3.96 µM (inactive) | 3.66 µM (inactive) | 7.26 µM (inactive) | 9.35 µM (inactive) | 8 µM (inactive) | – | 6.25 µM (inactive) | – |
